Results reported in patent US9938316B2, “Selective inhibitors of α2 isoform of Na,K-ATPase and use thereof for reduction of intra-ocular pressure and as cardiotonic agents” (priority 2013, dated 2018).

Columns and labels:
Experiment in all cases: biochemical
[1] = target: T1, Na,K-ATPase α2β2 isoform complex (Homo sapiens, UniProt P50993)
T1 construct: made in house; host or cells: Pichia pastoris SMD1165
Description: (§1) Human β1, β2 and β3 were cloned into the pHIL-D2 expression vector containing the human α1 or α2. pHIL-D2 expression vectors containing porcine (p) α1, human (h) α1 or human α2 with Hisx10 tagged porcine β1 were previously generated (7, 9). Human β1 (Accession: P05026), human β2 (Accession: P14415) and human β3 (Accession: […]) cDNAs in pSD5 vector were a gift from K. Geering Univ. Lausanne Switzerland. The open reading frames and flanking regions of hβ1, hβ2 and hβ3 (in pSD5) were amplified separately by polymerase chain reaction (PCR) using synthetic primers containing BglII and SalI cleavage sites. Each one of the amplified fragments were digested with BglII and SalI and ligated to BglII and SalI treated plasmid pHIL-D2-(pα1/His10pβ1) to generate pHIL-D2 (pα1/His10hβ1or2or3). hβ1, hβ2 and hβ3 containing fragments were excised from pHIL-D2-(pα1/His10hβ1or2or3) and subcloned into pHIL-D2-(hα1/His10pβ1) or pHIL-D2-(hα2/His10pβ1) to produce pHIL-D2-(hα1/His10hβ1or2or3) and pHIL-D2-(hα2/His10hβ1or2or3). The newly created plasmids were analyzed for correct integration and correct sequence of the insert by restriction enzymatic digestions and sequencing. DNA of each construct was prepared in large quantities in E. coli XL-1 Blue for Pichia pastoris transformation.
(§2) Inhibition of Na,K-ATPase activity of the detergent-soluble α1β1, α2β1, and α3β1 complexes by CG's was determined as described (6) using either the αβ or αβFXYD1 complexes. […] The K0.5K was estimated by varying K concentration in a medium containing a fixed total K+choline chloride of 60 mM, and constant NaCl of 140 mM. Curves were fitted to the Hill function v=Vmax*[S]^n/([S]^n+K^n), where S is the K concentration, n is the Hill coefficient and K^n is K0.5K. For comparison of different curves the ratio v/Vmax for each curve was calculated and replotted. In experiments to assess inhibition of Na,K-ATPase activity by cardiac glycosides of the present invention, the percent inhibition VCG/V0 was calculated and Ki values were obtained by fitting the data to the function VCG/V0=Ki/([CG]+Ki)+ c. Inhibition was estimated in 3-8 separate experiments and average Ki values ±SEM were calculated. Significance of differences between Kiα1 and Kiα2 was calculated by the unpaired Student's t-test (p values). […] P values <0.05 were considered significant.

[2] = tested on: Na,K-ATPase α2β2 isoform complex; set-up: species or system human; details: ratio of Ki, Table 6
Description: as §1, §2

[3] = target: T2, Na,K-ATPase α2β3 isoform complex (Homo sapiens, UniProt P50993)
T2 construct: made in house; host or cells: Pichia pastoris SMD1165
Description: as §1, §2

[4] = tested on: Na,K-ATPase α2β3 isoform complex; set-up: species or system human; details: ratio of Ki, Table 6
Description: as §1, §2

**Q.** With `CC1CN(C)CCC(OC2C(O)CC(OC3C(O)CC(OC4CCC5(C)C(CCC6C5CC(O)C5(C)C(C7=CC(=O)OC7)CCC65O)C4)OC3C)OC2C)O1` (stereo not shown) [DMe] as the compound, how does the Ki [1] read?
**A.** 20.4 ± 1.8 nM

**Q.** And the “Selectivity α1β1/α2/β2” value [2]?
**A.** 5.07

**Q.** And the Ki [3]?
**A.** 10.8 ± 0.6 nM

**Q.** And the “Selectivity α1β1/α2β3” value [4]?
**A.** 9.5
